Test results published in US7915291B2, “Hepatitis C virus inhibitors” (Bristol-Myers Squibb Company, priority 2002, dated 2011).
Where two headings read alike, the source gives them in different places.

Legend:
[1] = biological target: HCV NS3/4A protease complex, BMS strain (UniProt P27958, C1454S/C1711G, species not given/STRAIN_BMS); experiment: Recombinant HCV NS3/4A protease complex FRET peptide assay (BMS strain); format: biochemical, HCV genotype 1a
Method in brief: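 Recombinant BMS-strain NS3/4A (His-tagged NS4A with three-lysine tail, E. coli) at 2-3 nM preincubated 1 min with compound, then 2 μM ester-linked NS4A/NS4B-based FRET peptide added. Fluorescence followed in real time ~15 min at 25° C. Percent inhibition from slope of linear fluorescence change versus no-compound control.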

[2] = system: HCV replicon in Huh7 cells; experiment: HCV replicon cell-based assay; parameters: species or system HCV strain 1B; settings: Hepatitis C virus, Huh-7; HCV replicon, Huh7 cells; read-out: EC50 range
[3] = NS3/4A BMS strain; read-out: IC50 range
[4] = read-out: IC50 range; NS3/4A BMS strain

Row | SMILES | IC50 [1, 3] | EC50 [2] | IC50 [1, 4]
1 | C=C[C@@H]1C[C@]1(NC(=O)[C@@H]1C[C@@H](Oc2nccc3c(Cl)cccc23)CN1C(=O)[C@@H](NC(=O)OC(C)(C)C)C(C)(C)C)C(=O)NS(=O)(=O)C1CC1 [Compound 254] | < 100 nM | < 100 nM | –
2 | C=C[C@@H]1C[C@]1(NC(=O)[C@@H]1C[C@@H](Oc2cc(-c3ccc(F)cc3)nc3c(C)noc23)CN1C(=O)[C@@H](NC(=O)OC(C)(C)C)C(C)(C)C)C(=O)NS(=O)(=O)C1CC1 [Compound 4] | < 100 nM | < 100 nM | –
3 | C=C[C@@H]1C[C@]1(NC(=O)[C@@H]1C[C@@H](Oc2nccc3cc(OC)ccc23)CN1C(=O)[C@@H](NC(=O)OCC(C)(C)C)C(C)(C)C)C(=O)NS(=O)(=O)C1CCC1 [Compound 381] | – | 100 to 1000 nM | < 100 nM
4 | C=C[C@@H]1C[C@]1(NC(=O)[C@@H]1C[C@@H](Oc2cc(-c3ccccn3)nc3cc(OC)ccc23)CN1C(=O)[C@@H](NC(=O)OC(C)(C)C)C(C)(C)C)C(=O)NS(=O)(=O)C1CC1 [Compound 379] | < 100 nM | < 100 nM | –
5 | C=CC1C[C@]1(NC(=O)[C@@H]1C[C@@H](Oc2ccnc3c(C(F)(F)F)cccc23)CN1C(=O)[C@@H](NC(=O)OC(C)(C)C)C(C)(C)C)C(=O)NS(=O)(=O)C1CC1 (stereo partly drawn) [Compound 186, BOCNH-P3(L-tert-BuGly)-P2[(4R)-(8-trifluoromethyl quinolin-4-oxo)-S-proline]-P1(1R,2S Vinyl Acca)-CONHSO2-Cyclopropane] | < 100 nM | < 100 nM | –
6 | C=CC1C[C@]1(NC(=O)[C@@H]1C[C@@H](Oc2ccc3c(Cl)nccc3c2SCCC)CN1C(=O)[C@@H](NC(=O)OC(C)(C)C)C(C)(C)C)C(=O)NS(=O)(=O)C1CC1 (stereo partly drawn) [Compound 204, BOCNH-P3(L-t-BuGly)-P2[(4R)-(1-Chloro-5propylthio -isoquinolin-6-oxo)-S-proline]-P1(1R,2S VinylAcca)-CONHSO2Cyclopropane] | < 100 nM | 100 to 1000 nM | –
7 | C=C[C@@H]1C[C@]1(NC(=O)[C@@H]1C[C@@H](Oc2ncc(Cl)c3ccc(OC)cc23)CN1C(=O)[C@@H](NC(=O)OC(C)(C)C)C(C)(C)C)C(=O)NS(=O)(=O)C1CC1 [Compound 284] | 100 to 1000 nM | 10000 to 100000 nM | –
8 | C=C[C@@H]1C[C@]1(NC(=O)[C@@H]1C[C@@H](Oc2ncc(Cl)c3ccccc23)CN1C(=O)[C@@H](NC(=O)OC(C)(C)C)C(C)(C)C)C(=O)NS(=O)(=O)C1CC1 [Compound 281] | < 100 nM | < 100 nM | –
9 | C=C[C@@H]1C[C@]1(NC(=O)[C@@H]1C[C@@H](Oc2nccc3ccc(F)cc23)CN1C(=O)[C@@H](NC(=O)OC(C)(C)C)C(C)(C)C)C(=O)NS(=O)(=O)C1CC1 [Compound 257] | < 100 nM | < 100 nM | –
10 | C=C[C@@H]1C[C@]1(NC(=O)[C@@H]1CC(Oc2nccc3cc(OC)ccc23)CN1C(=O)[C@@H](NC(=O)N(C)OC)C(C)(C)C)C(=O)NS(=O)(=O)C1CC1 (some centres unmarked) [Compound 78] | < 100 nM | 1000 to 10000 nM | –
11 | C=CC1C[C@]1(NC(=O)[C@@H]1C[C@@H](Oc2nnc(-n3cncn3)c3ccccc23)CN1C(=O)[C@@H](NC(=O)OC(C)(C)C)C(C)(C)C)C(=O)NS(=O)(=O)C1CC1 (stereo partly drawn) [Compound 198, BOCNH-P3(L-tert-BuGly)-P2[(4R)-(4-(1,2,4-triazo-1-yl)phthalazine-1-oxo)-S-proline]-P1(1R,2S Vinyl Acca)-CONHSO2-Cyclopropane] | < 100 nM | 100 to 1000 nM | –
12 | C=C[C@@H]1C[C@]1(NC(=O)[C@@H]1C[C@@H](Oc2nccc3ccc(OC)cc23)CN1C(=O)[C@@H](NC(=O)OC(C)(C)C)C(C)(C)C)C(=O)NS(=O)(=O)C1CC1 [Compound 260] | < 100 nM | 100 to 1000 nM | –
13 | C=CC1C[C@]1(NC(=O)[C@@H]1C[C@@H](Oc2nccc3cc(OC(C)C)ccc23)CN1C(=O)[C@@H](NC(=O)OC(C)(C)C)C(C)(C)C)C(=O)NS(=O)(=O)C1CC1 (stereo partly drawn) [Compound 192, BOCNH-P3(L-tert-BuGly)-P2[(4R)-(6-isopropoxy isoquinolin-1-oxo)-S-proline]-P1(1R,2S Vinyl Acca)-CONHSO2-Cyclopropane] | < 100 nM | < 100 nM | –
14 | C=C[C@@H]1C[C@]1(NC(=O)[C@@H]1C[C@@H](Oc2nccc3cc(OC)ccc23)CN1C(=O)[C@@H](NC(=O)NC1CCCC1)[C@H](C)OC)C(=O)NS(=O)(=O)C1CC1 [Compound 103] | < 100 nM | < 100 nM | –
15 | C=C[C@@H]1C[C@]1(NC(=O)[C@@H]1C[C@@H](Oc2nc(Cl)cc3cc(OC)ccc23)CN1C(=O)[C@@H](NC(=O)OC(C)(C)C)C(C)(C)C)C(=O)NS(=O)(=O)C1CC1 [Compound 40] | < 100 nM | 100 to 1000 nM | –
16 | C=CC1C[C@]1(NC(=O)[C@@H]1C[C@@H](Oc2cccc3c(Cl)ccnc23)CN1C(=O)[C@@H](NC(=O)OC(C)(C)C)C(C)(C)C)C(=O)NS(=O)(=O)C1CC1 (stereo partly drawn) [Compound 242, BOCNH-P3(L-t-BuGly)-P2[(4R)-(4-chloroquinoline-8-oxo)-S -proline]-P1(1R,2S VinylAcca)-CONHSO2Cyclopropane] | < 100 nM | 1000 to 10000 nM | –
17 | C=C[C@@H]1C[C@]1(NC(=O)[C@@H]1C[C@@H](Oc2ncc(Cl)c3cc(OC)ccc23)CN1C(=O)[C@@H](NC(=O)OC(C)(C)C)C(C)(C)C)C(=O)NS(=O)(=O)C1CC1 [Compound 278] | < 100 nM | < 100 nM | –

Row | SMILES | IC50 [1, 3] | EC50 [2] | IC50 [1, 4]
18 | C=C[C@@H]1C[C@]1(NC(=O)[C@@H]1C[C@@H](Oc2nccc3ccccc23)CN1C(=O)[C@@H](NC(=O)OCC(C)(C)C)C(C)(C)C)C(=O)NS(=O)(=O)C1CC1 [Compound 125] | < 100 nM | < 100 nM | –
19 | C=C[C@@H]1C[C@]1(NC(=O)[C@@H]1C[C@@H](Oc2nccc3cc(OC)ccc23)CN1C(=O)C(NC(=O)N[C@H](C(=O)OC)C(C)C)C(C)(C)C)C(=O)NS(=O)(=O)C1CC1 (some centres unmarked) [Compound 141] | < 100 nM | < 100 nM | –
20 | C=C[C@@H]1C[C@]1(NC(=O)[C@@H]1C[C@@H](Oc2nc(Cl)cc3ccccc23)CN1C(=O)[C@@H](NC(=O)OC(C)(C)C)C(C)(C)C)C(=O)NS(=O)(=O)C1CC1 [Compound 24] | < 100 nM | < 100 nM | –
21 | C=C[C@@H]1C[C@]1(NC(=O)[C@@H]1C[C@@H](Oc2cncc(-c3ccccc3)c2)CN1C(=O)[C@@H](NC(=O)OC(C)(C)C)C(C)(C)C)C(=O)NS(=O)(=O)C1CC1 [Compound 420] | < 100 nM | 100 to 1000 nM | –
22 | C=C[C@@H]1C[C@]1(NC(=O)[C@@H]1C[C@@H](Oc2nccc3ccccc23)CN1C(=O)[C@@H](NC(=O)CC(C)(C)C)C(C)(C)C)C(=O)NS(=O)(=O)C1CC1 [Compound 130] | < 100 nM | 100 to 1000 nM | –
23 | C=C[C@@H]1C[C@]1(NC(=O)[C@@H]1CC(Oc2nccc3cc(OC)ccc23)CN1C(=O)[C@@H](NC(=O)OC(C)(C)C)[C@@H](C)O)C(=O)NS(=O)(=O)C1CC1 (some centres unmarked) [Compound 91] | < 100 nM | 100 to 1000 nM | –
24 | C=C[C@@H]1C[C@]1(NC(=O)[C@@H]1C[C@@H](Oc2cc(-c3ccccc3)nc(-c3ccc(OC)cc3)c2)CN1C(=O)[C@@H](NC(=O)OC(C)(C)C)C(C)(C)C)C(=O)NS(=O)(=O)C1CC1 [Compound 414] | < 100 nM | < 100 nM | –
25 | C=CC1C[C@]1(NC(=O)[C@@H]1C[C@@H](Oc2nc(Br)c(OC)c3ccccc23)CN1C(=O)[C@@H](NC(=O)OC(C)(C)C)C(C)(C)C)C(=O)NS(=O)(=O)C1CC1 (some centres unmarked) [Compound 223] | < 100 nM | < 100 nM | –
26 | C=CC1C[C@]1(NC(=O)[C@@H]1C[C@@H](Oc2nc(-c3ccncc3)cc3cc(OC)ccc23)CN1C(=O)[C@@H](NC(=O)OC(C)(C)C)C(C)(C)C)C(=O)NS(=O)(=O)C1CC1 (some centres unmarked) [Compound 325] | < 100 nM | < 100 nM | –
27 | C=C[C@@H]1CC1(NC(=O)[C@@H]1CC(Oc2nccc3cc(OC)ccc23)CN1C(=O)[C@@H](NC(=O)OCc1ccccc1)C(C)(C)C)C(=O)NS(=O)(=O)C1CC1 (some centres unmarked) [Compound 64] | – | < 100 nM | < 100 nM
28 | C=C[C@@H]1C[C@]1(NC(=O)[C@@H]1C[C@@H](Oc2nc(-c3ccc(C#N)cc3)cc3ccccc23)CN1C(=O)[C@@H](NC(=O)OC(C)(C)C)C(C)(C)C)C(=O)NS(=O)(=O)C1CC1 [Compound 29] | < 100 nM | < 100 nM | –
29 | CC[C@@H]1C[C@]1(NC(=O)[C@@H]1C[C@@H](Oc2nccc3c(Cl)cccc23)CN1C(=O)[C@@H](NC(=O)OC(C)(C)C)C(C)(C)C)C(=O)NS(=O)(=O)C1CC1 [Compound 294] | < 100 nM | 100 to 1000 nM | –
30 | C=CC1C[C@]1(NC(=O)[C@@H]1C[C@@H](Oc2nc3ccccc3nc2O)CN1C(=O)[C@@H](NC(=O)OC(C)(C)C)C(C)(C)C)C(=O)NS(=O)(=O)C1CC1 (stereo partly drawn) [Compound 243, BOCNH-P3(L-t-BuGly)-P2[(4R)-(3-hydroxyquinoxaline-2-oxo)-S -proline]-P1(1R,2S VinylAcca)-CONHSO2Cyclopropane] | 100 to 1000 nM | 10000 to 100000 nM | –
31 | C=CC1C[C@]1(NC(=O)[C@@H]1C[C@@H](COc2cccc(-c3cccs3)n2)CN1C(=O)[C@@H](NC(=O)OC)C(C)(C)C)C(=O)NS(=O)(=O)C1CC1 (some centres unmarked) [Compound 356] | 100 to 1000 nM | 1000 to 10000 nM | –
32 | C=C[C@@H]1C[C@]1(NC(=O)[C@@H]1CC(Oc2nccc3cc(OC)ccc23)CN1C(=O)[C@@H](NC(=O)OC(C)(C)c1ccccc1)C(C)(C)C)C(=O)NS(=O)(=O)C1CC1 (some centres unmarked) [Compound 72] | < 100 nM | 100 to 1000 nM | –
33 | C=C[C@@H]1C[C@]1(NC(=O)[C@@H]1C[C@@H](Oc2ccnc(-c3ccsc3)c2)CN1C(=O)[C@@H](NC(=O)OC1CCCC1)C(C)(C)C)C(=O)NS(=O)(=O)C1CC1 [Compound 430] | < 100 nM | 100 to 1000 nM | –
34 | C=CC1C[C@]1(NC(=O)[C@@H]1C[C@@H](Oc2nccc(-c3cccs3)n2)CN1C(=O)[C@@H](NC(=O)CC1CC1)C(C)(C)C)C(=O)NS(=O)(=O)C1CC1 (some centres unmarked) [Compound 338] | < 100 nM | 1000 to 10000 nM | –
